Source: patent publication US11692167B2, “Chemically defined serum replacements for cell culture” (Montana State University, priority 2021, dated 2023)

Experiments:
HFF cells = experiment: Design of Experiments two-factor interaction on HFF cells (cell numbers/mL); assay type: cell-based, human; details: culture for 5 days
Excerpt: Optimization of mixes is achieved using Design of Experiments (DoE) computer-based design and analysis protocols. Experiments are computer designed according to number of variables to test, and serial dilutions of those variables. Results are able to indicate two factor interactions. […] This enables the optimization of many interdependent nutrients using maxima and repeat application. […] Vertical axes reflect cell numbers/mL after culture for 5 days. Horizontal axes correspond to increasing concentration of indicated lipids.

[1] = spectrophotometric assay using phenolphthalein indicator to determine complexation efficiency of lipids with cyclodextrins; assay type: physicochemical; details: extrapolated from free phenolphthalein absorbance
Procedure: Solubilized lipids were evaluated by spectrophotometric assay using Phenolphthalein, which is known to occupy the complexing reagents used for five hydrophobic nutrients used in chemically defined mixes. Phenolphthalein is known to be displaced from the reagent when a hydrophobic moiety is complexed, so the concentration of occupied reagents was extrapolated from coloration indicating concentration of free phenolphthalein in solution when a known amount of solubilized nutrient was dosed with a known quantity of Phenolphthalein. […] Phenolphthalein is colored when free in solution at pH 8+. It readily complexes with cyclodextrins of all types and is colorless when complexed. It is preferentially displaced by more hydrophobic molecules, so when added to a known concentration of complexed lipids, the absorbance can determine how much free phenolphthalein is present, and therefore how many free cyclodextrins are present. Since the stoichiometry of mixing is 1:1, the concentration of cyclodextrins that are free to interact with Phenolphthalein logically equals the concentration of free lipid in solution.

Row | free lipid concentration in solution relative to critical micelle concentration (literature level) [1] | SMILES | two-factor interaction with PT (palmitate) on cell numbers/mL (HFF cells; FIG. 8A) | two-factor interaction with α linolenic acid (ALA) on cell numbers/mL (HFF cells; FIG. 8B)
1 | – | CCCCCC/C=C\CCCCCCCC(=O)O [PA, palmitoleic acid] | agonistic relationship | antagonist relationship
2 | greater than the literature level | CCCCCCCC/C=C\CCCCCCCC(=O)O [oleic acid] | – | –
